Like-named read-outs stand apart in the source and are kept apart here.
How the values were obtained:
HCT116 cells [1] = experiment: 5-FU treatment and cytotoxicity assay (WST-1); format: cell-based; conditions: Homo sapiens, HCT-116, 72 h, read-out: IC50 (50% growth inhibition, WST-1)
Description: Twenty-four hours after transfection, HCT116 cells were plated in 96-well plates at 2×10^3 cells per well in triplicates in 100 μl of medium. After 24 hours, fresh medium containing 5-FU alone (ranged from 1 to 4 μM) or miR-129 precursor alone (ranged from 10 nM to 40 nM) or 5-FU and miR-129 together (at a constant ratio 1:10, with increasing concentrations of both compounds) were added, and cells were cultured for an additional 72 hours. Cell viability was measured using the WST-1 assay, and concentration-dependent curves were generated based on the cell viability. The combination index was calculated by CompuSyn software. See, Chou T C et al. (2007).

HCT116 cells [2] = experiment: Colorectal cancer xenografts (HCT116) in NOD/SCID mice, tumor volume; format: in vivo; conditions: day 24
Description: When solid and palpable tumors with an average volume of 100-150 mm^3 were formed (at day 14), mice were randomly separated into four groups such that each group was treated either with negative control miRNA, miR-129 alone, 5-FU alone or miR-129 and 5-FU together. The miRNAs were complexed with siPORTamine and injected intratumorally while 5-FU (50 μg g^−1) was injected systemically via the tail vein. All injections were provided in 3-day intervals for a total of three times before the tumors were collected at day 24. […] Importantly, despite the overexpression, the expression levels of miR-129 copy number remained within the physiological range (less than 20 copies/cell based on cycle threshold value at 30, which is equal to the expression of miR-129 in normal colon mucosa). Moreover, the control tumor xenografts had no miR-129 expression (cycle threshold value at 35).
Ten-twelve week old NOD/SCID mice (Jackson Laboratories, Bar Harbor, […]., USA) were used for tumor implantation. All animal procedures were approved by the Stony Brook University Institutional Animal Care and Use Committee (IACUC). The tumor implantation and miRNA injection protocol was modified from Trang et al. (see Trang P., et al., Oncogene. (2010) 29(11):1580-7). The mice were anesthetized by isoflurane inhalation. HCT116 cells were subcutaneously injected into the lower back areas of the mice using 2.5×10^6 cells in 100 μl McCoy's 5A with 50% matrigel (BD Biosciences). The tumor size was measured using a caliper and tumor volume was calculated using the formula V=length×width^2/2. When tumor volumes reach 100-150 mm^3 at day 14 post-injection, the mice were randomly assigned into four groups. For the first two groups, 10 μM negative miRNA or miR-129 precursor (Ambion) complexed with 1.6 μl siPORTAmine (Ambion) in 50 μl McCoy's 5A was injected into the tumors every three days. For the third group, 5-FU (Sigma-Aldrich) was injected at 50 μg/g via the tail vein every three days. Finally, for the last group, both miR-129 precursor and 5-FU were injected as described above. The mice were euthanized on day 24 post-injection by CO2 inhalation, and tumors were dissected out for RNA isolation.

O=c1[nH]cc(F)c(=O)[nH]1 [5-FU, 5-fluoro-1H-pyrimidine-2,4-dione, reference compound]
IC50 (HCT116 cells [1]; 5-FU alone): 2300 nM | IC50 (HCT116 cells [1]; 5-FU when combined with miR-129 (fixed ratio 1:10)): 600 nM | inhibition of tumor growth (in words) (HCT116 cells [2]; HCT116 xenograft, compared with negative miRNA or single agents): strong inhibitory effect | average tumor volume, % of the control group (HCT116 cells [2]; treated days 14, 17, 20, miRNA intratumoral with siPORTamine, 5-FU 50 μg/g tail vein, control negative miRNA): 48.4%
